In ChEMBL document CHEMBL3045230, “Synthesis and pharmacological evaluation of novel 4-isopropylthiazole-4-phenyl-1,2,4-triazole derivatives as potential antimicrobial and antitubercular agents” (Med Chem Res, 2013):
Converted amounts (≈) assume the structure as drawn.

Assays:
Saccharomyces cerevisiae = assay: Antimicrobial activity against Saccharomyces cerevisiae ATCC 9763 assessed as growth inhibition after 24 hr by broth dilution assay method; format: functional; settings: ATCC 9763, 24 h
Escherichia coli = assay: Antimicrobial activity against Escherichia coli ATCC 10536 assessed as growth inhibition after 24 hr by broth dilution assay method; format: functional; settings: ATCC 10536, 24 h
Enterococcus faecalis = assay: Antimicrobial activity against […] ATCC 14506 assessed as growth inhibition after 24 hr by broth dilution assay method; format: functional; settings: ATCC 14506, 24 h
[1] = test system: Mycobacterium tuberculosis; assay: Antitubercular activity against Mycobacterium tuberculosis H37Rv assessed as growth inhibition after 21 days by broth dilution assay method; format: functional; settings: 504 h
Bacillus subtilis = assay: Antimicrobial activity against Bacillus subtilis ATCC 60511 assessed as growth inhibition after 24 hr by broth dilution assay method; format: functional; settings: ATCC 60511, 24 h
Pseudomonas aeruginosa = assay: Antimicrobial activity against Pseudomonas aeruginosa ATCC 10145 assessed as growth inhibition after 24 hr by broth dilution assay method; format: functional; settings: ATCC 10145, 24 h
Aspergillus niger = assay: Antimicrobial activity against Aspergillus niger ATCC 6275 assessed as growth inhibition after 24 hr by broth dilution assay method; format: functional; settings: ATCC 6275, 24 h
Klebsiella pneumoniae = assay: Antimicrobial activity against Klebsiella pneumoniae ATCC 10031 assessed as growth inhibition after 24 hr by broth dilution assay method; format: functional; settings: ATCC 10031, 24 h
Candida tropicalis = assay: Antimicrobial activity against Candida tropicalis ATCC 1369 assessed as growth inhibition after 24 hr by broth dilution assay method; format: functional; settings: ATCC 1369, 24 h
Staphylococcus aureus = assay: Antimicrobial activity against Staphylococcus aureus ATCC 11632 assessed as growth inhibition after 24 hr by broth dilution assay method; format: functional; settings: ATCC 11632, 24 h
[2] = Cytotoxicity against Homo sapiens (human) A549 cells assessed as viable cells at 250 uM by MTT assay in presence of fetal bovine serum; format: cell-based; settings: A549 cells, read-out: Activity

| Compound | MIC (Saccharomyces cerevisiae) [µg/mL] | MIC (Escherichia coli) [µg/mL] | MIC (Enterococcus faecalis) [µg/mL] | MIC [1] [µg/mL] | MIC (Bacillus subtilis) [µg/mL] | MIC (Pseudomonas aeruginosa) [µg/mL] | MIC (Aspergillus niger) [µg/mL] | MIC (Klebsiella pneumoniae) [µg/mL] | MIC (Candida tropicalis) [µg/mL] | MIC (Staphylococcus aureus) [µg/mL] | viability at 250 µM [2] [%] |
| --- | --- | --- | --- | --- | --- | --- | --- | --- | --- | --- | --- |
| CC(=O)NNC(=O)CSc1nnc(-c2nc(C(C)C)cs2)n1-c1ccccc1 | 16 (≈ 38.4 µM) | 62.5 (≈ 150 µM) | 125 (≈ 300 µM) | 62.5 (≈ 150 µM) | 62.5 (≈ 150 µM) | 125 (≈ 300 µM) | 8 (≈ 19.2 µM) | 31.2 (≈ 75 µM) | 8 (≈ 19.2 µM) | 125 (≈ 300 µM) | – |
| O=C(O)c1cn(C2CC2)c2cc(N3CCNCC3)c(F)cc2c1=O [CIPROFLOXACIN] | – | ≤ 1 | ≤ 5 | – | ≤ 1 | ≤ 5 | – | ≤ 1 | – | ≤ 5 | – |
| C/C(=N\NC(=O)CSc1nnc(-c2nc(C(C)C)cs2)n1-c1ccccc1)c1ccc(O)cc1 | 31.2 (≈ 63.4 µM) | 16 (≈ 32.5 µM) | 31.2 (≈ 63.4 µM) | 16 (≈ 32.5 µM) | 62.5 (≈ 127 µM) | 16 (≈ 32.5 µM) | 8 (≈ 16.2 µM) | 31.2 (≈ 63.4 µM) | 8 (≈ 16.2 µM) | 62.5 (≈ 127 µM) | 50 |
| Cc1ccc(-c2nnc(CSc3nnc(-c4nc(C(C)C)cs4)n3-c3ccccc3)o2)cc1 | 125 (≈ 263 µM) | 31.2 (≈ 65.8 µM) | 31.2 (≈ 65.8 µM) | – | 125 (≈ 263 µM) | 62.5 (≈ 132 µM) | 125 (≈ 263 µM) | 62.5 (≈ 132 µM) | 31.2 (≈ 65.8 µM) | 62.5 (≈ 132 µM) | – |
| COc1ccc(/C=N/NC(=O)CSc2nnc(-c3nc(C(C)C)cs3)n2-c2ccccc2)cc1OC | 16 (≈ 30.6 µM) | 16 (≈ 30.6 µM) | 12 (≈ 23 µM) | 8 (≈ 15.3 µM) | 8 (≈ 15.3 µM) | 31.2 (≈ 59.8 µM) | 16 (≈ 30.6 µM) | 16 (≈ 30.6 µM) | 31.2 (≈ 59.8 µM) | 8 (≈ 15.3 µM) | – |
| CC(C)c1csc(-c2nnc(SCc3nnc(-c4ccc([N+](=O)[O-])cc4)o3)n2-c2ccccc2)n1 | 62.5 (≈ 124 µM) | 62.5 (≈ 124 µM) | 31.2 (≈ 61.8 µM) | – | 62.5 (≈ 124 µM) | 31.2 (≈ 61.8 µM) | 62.5 (≈ 124 µM) | 31.2 (≈ 61.8 µM) | 31.2 (≈ 61.8 µM) | 31.2 (≈ 61.8 µM) | – |
| CC(C)c1csc(-c2nnc(SCc3nnc(CCl)o3)n2-c2ccccc2)n1 | 62.5 (≈ 144 µM) | 16 (≈ 37 µM) | 16 (≈ 37 µM) | – | 31.2 (≈ 72.2 µM) | 16 (≈ 37 µM) | 31.2 (≈ 72.2 µM) | 31.2 (≈ 72.2 µM) | 125 (≈ 289 µM) | 8 (≈ 18.5 µM) | – |
| COc1cc(/C=N/NC(=O)CSc2nnc(-c3nc(C(C)C)cs3)n2-c2ccccc2)ccc1O | 16 (≈ 31.5 µM) | 8 (≈ 15.7 µM) | 125 (≈ 246 µM) | 31.2 (≈ 61.4 µM) | 16 (≈ 31.5 µM) | 16 (≈ 31.5 µM) | 31.2 (≈ 61.4 µM) | 8 (≈ 15.7 µM) | 62.5 (≈ 123 µM) | 125 (≈ 246 µM) | – |
| CCn1cc(C(=O)O)c(=O)c2cc(F)c(N3CCNCC3)cc21 [NORFLOXACIN] | – | ≤ 1 | ≤ 5 | – | ≤ 1 | ≤ 5 | – | ≤ 1 | – | ≤ 5 | – |
| C/C(=N\NC(=O)CSc1nnc(-c2nc(C(C)C)cs2)n1-c1ccccc1)c1ccc(Br)cc1 | 31.2 (≈ 56.3 µM) | 62.5 (≈ 113 µM) | 125 (≈ 225 µM) | 31.2 (≈ 56.3 µM) | 62.5 (≈ 113 µM) | 125 (≈ 225 µM) | 31.2 (≈ 56.3 µM) | 31.2 (≈ 56.3 µM) | 125 (≈ 225 µM) | 16 (≈ 28.8 µM) | – |
| C/C(=N\NC(=O)CSc1nnc(-c2nc(C(C)C)cs2)n1-c1ccccc1)c1ccc([N+](=O)[O-])cc1 | 125 (≈ 240 µM) | 62.5 (≈ 120 µM) | 31.2 (≈ 59.9 µM) | 62.5 (≈ 120 µM) | 125 (≈ 240 µM) | 62.5 (≈ 120 µM) | 125 (≈ 240 µM) | 31.2 (≈ 59.9 µM) | 31.2 (≈ 59.9 µM) | 31.2 (≈ 59.9 µM) | – |
| C/C(=N\NC(=O)CSc1nnc(-c2nc(C(C)C)cs2)n1-c1ccccc1)c1ccc(C)cc1 | 62.5 (≈ 127 µM) | 125 (≈ 255 µM) | 62.5 (≈ 127 µM) | 62.5 (≈ 127 µM) | 31.2 (≈ 63.7 µM) | 62.5 (≈ 127 µM) | 31.2 (≈ 63.7 µM) | 16 (≈ 32.6 µM) | 125 (≈ 255 µM) | 125 (≈ 255 µM) | – |
| CC(C)c1csc(-c2nnc(SCC(=O)N/N=C/c3ccc(Cl)cc3)n2-c2ccccc2)n1 | 16 (≈ 32.2 µM) | 31.2 (≈ 62.9 µM) | 31.2 (≈ 62.9 µM) | 125 (≈ 251 µM) | 31.2 (≈ 62.9 µM) | 62.5 (≈ 126 µM) | 31.2 (≈ 62.9 µM) | 62.5 (≈ 126 µM) | 31.2 (≈ 62.9 µM) | 62.5 (≈ 126 µM) | – |
| OC(Cn1cncn1)(Cn1cncn1)c1ccc(F)cc1F [FLUCONAZOLE] | ≤ 1 | – | – | – | – | – | ≤ 1 | – | ≤ 1 | – | – |
| C/C(=N\NC(=O)CSc1nnc(-c2nc(C(C)C)cs2)n1-c1ccccc1)c1ccc(Cl)cc1 | 31.2 (≈ 61.1 µM) | 16 (≈ 31.3 µM) | 31.2 (≈ 61.1 µM) | 31.2 (≈ 61.1 µM) | 125 (≈ 245 µM) | 31.2 (≈ 61.1 µM) | 125 (≈ 245 µM) | 62.5 (≈ 122 µM) | 31.2 (≈ 61.1 µM) | 31.2 (≈ 61.1 µM) | – |
| CC(C)c1csc(-c2nnc(SCC(=O)N/N=C/c3cccc([N+](=O)[O-])c3)n2-c2ccccc2)n1 | 62.5 (≈ 123 µM) | 31.2 (≈ 61.6 µM) | 31.2 (≈ 61.6 µM) | 62.5 (≈ 123 µM) | 31.2 (≈ 61.6 µM) | 62.5 (≈ 123 µM) | 125 (≈ 246 µM) | 16 (≈ 31.5 µM) | 31.2 (≈ 61.6 µM) | 125 (≈ 246 µM) | – |
| CC(C)c1csc(-c2nnc(SCc3nnc(-c4ccc(O)cc4)o3)n2-c2ccccc2)n1 | 31.2 (≈ 65.6 µM) | 62.5 (≈ 131 µM) | 62.5 (≈ 131 µM) | – | 31.2 (≈ 65.6 µM) | 31.2 (≈ 65.6 µM) | 31.2 (≈ 65.6 µM) | 125 (≈ 262 µM) | 31.2 (≈ 65.6 µM) | 31.2 (≈ 65.6 µM) | – |
| CC(C)c1csc(-c2nnc(SCc3nnc(-c4ccccc4)o3)n2-c2ccccc2)n1 | 16 (≈ 34.7 µM) | 125 (≈ 271 µM) | 31.2 (≈ 67.8 µM) | – | 31.2 (≈ 67.8 µM) | 31.2 (≈ 67.8 µM) | 31.2 (≈ 67.8 µM) | 62.5 (≈ 136 µM) | 16 (≈ 34.7 µM) | 31.2 (≈ 67.8 µM) | – |
| NNC(=O)c1ccncc1 [ISONIAZID] | – | – | – | 0.25 (≈ 1.82 µM) | – | – | – | – | – | – | – |
| COc1ccc(/C(C)=N/NC(=O)CSc2nnc(-c3nc(C(C)C)cs3)n2-c2ccccc2)cc1 | 62.5 (≈ 123 µM) | 125 (≈ 247 µM) | 31.2 (≈ 61.7 µM) | 8 (≈ 15.8 µM) | 62.5 (≈ 123 µM) | 62.5 (≈ 123 µM) | 125 (≈ 247 µM) | 250 (≈ 493 µM) | 125 (≈ 247 µM) | 31.2 (≈ 61.7 µM) | – |
| CCOC(=O)CSc1nnc(-c2nc(C(C)C)cs2)n1-c1ccccc1 | 62.5 (≈ 161 µM) | 125 (≈ 322 µM) | 125 (≈ 322 µM) | 125 (≈ 322 µM) | 62.5 (≈ 161 µM) | 62.5 (≈ 161 µM) | 62.5 (≈ 161 µM) | 125 (≈ 322 µM) | 125 (≈ 322 µM) | 125 (≈ 322 µM) | – |
| CC(C)c1csc(-c2nnc(SCc3nnc(-c4ccc(Cl)cc4)o3)n2-c2ccccc2)n1 | 62.5 (≈ 126 µM) | 62.5 (≈ 126 µM) | 8 (≈ 16.2 µM) | – | 4 (≈ 8.08 µM) | 62.5 (≈ 126 µM) | 125 (≈ 253 µM) | 62.5 (≈ 126 µM) | 125 (≈ 253 µM) | 8 (≈ 16.2 µM) | 50 |
